# In patent US7105529B2, “Substituted oxindole derivatives as protein tyrosine and as protein serine/threonine kinase inhibitors and compositions and methods of treating chemotherapy and radiation therapy side effects” (SmithKline Beecham Corporation, priority 1997, dated 2006):
# What was measured:
# [1] = target: CDK2 (Homo sapiens, UniProt P24941); assay: CDK2 substrate phosphorylation assay; format: biochemical
# [2] = tested on: MDA-MB468 (human breast carcinoma cell line); assay: MTT assay, MDA MB468; format: cell-based
# Description: Compounds are tested for their ability to inhibit cell proliferation and cell viability. The metabolic conversion of 3-(4,5-dimethylthiazol-2-yl)-2,5-diphenyltetrazolium bromide (MTT, Sigma #M2128) to a reduced form is a commonly used measure of cellular viability. Following is the procedure: Cells are maintained in 75 cm^2 tissue culture flasks until ready for use. The cells are grown and plated for the assay in Dulbecco's modified Eagle's media (DMEM) containing 10% fetal bovine serum. For example, the following cell lines can be used: a) human foreskin fibroblasts (HFF); b) HT29 (human colon carcinoma cell line); c) MDA-MB468 (human breast carcinoma cell line); d) RKO (human colon adenocarcinoma cell line); e) SW620 (human colon carcinoma cell line); f A549 (human lung carcinoma cell line); and g) MIA PACA (human pancreatic carcinoma cell line). Cells are maintained at 37° C. in 10% CO2, 90% humidified air. Cells are plated in 96-well tissue culture plates at the densities listed below. 100 μL of cell suspension is added to each well of the 96-well plate except the top row of the plate which contains no cells and serves as a reference for the spectrophotometer. [table] […] Quantitation of metabolic reduction of MTT in each plate is performed by reading optical density at 570 nm wavelength on a Molecular Devices UVmax microplate reader.
# [3] = target: CDK1 (Homo sapiens, UniProt P06493); assay: CDK1 substrate phosphorylation assay; format: biochemical
# Chain of CDK1 (P06493 whole entry): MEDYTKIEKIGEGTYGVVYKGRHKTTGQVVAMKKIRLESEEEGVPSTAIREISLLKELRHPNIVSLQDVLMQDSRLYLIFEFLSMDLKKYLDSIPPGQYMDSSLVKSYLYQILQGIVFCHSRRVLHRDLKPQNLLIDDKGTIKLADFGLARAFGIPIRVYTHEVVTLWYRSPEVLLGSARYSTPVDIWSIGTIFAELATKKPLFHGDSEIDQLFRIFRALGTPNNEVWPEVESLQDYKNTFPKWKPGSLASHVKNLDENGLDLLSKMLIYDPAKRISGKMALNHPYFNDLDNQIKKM
# Chain of CDK1 (P14635 whole entry partner): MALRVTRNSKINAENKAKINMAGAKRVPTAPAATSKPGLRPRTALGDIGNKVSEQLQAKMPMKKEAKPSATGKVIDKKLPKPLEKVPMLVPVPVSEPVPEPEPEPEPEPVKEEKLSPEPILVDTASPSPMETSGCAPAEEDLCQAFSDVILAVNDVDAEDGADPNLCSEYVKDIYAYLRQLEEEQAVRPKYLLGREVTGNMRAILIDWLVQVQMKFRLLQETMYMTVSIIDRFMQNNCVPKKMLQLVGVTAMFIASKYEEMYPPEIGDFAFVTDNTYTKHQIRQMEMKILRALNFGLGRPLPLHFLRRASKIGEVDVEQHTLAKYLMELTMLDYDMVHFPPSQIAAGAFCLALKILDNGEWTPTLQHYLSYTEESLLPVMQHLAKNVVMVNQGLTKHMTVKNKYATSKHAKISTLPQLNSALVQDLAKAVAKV
# Description: Cyclin dependent protein kinase assays utilized the peptides Biotin-aminohexyl-[…] and Biotin-aminohexyl-[…]-NH2 as phosphoryl group acceptors. CDK1 and CDK2 were both expressed utilizing a baculovirus expression system and were partially purified to comprise 20–80% of total protein, with no detectable competing reactions present. Typically, assays were performed by incubating either enzyme (0.2–10 nM), with and without inhibitor, one of the two peptide substrates (1–10 nM), [γ-^32P]ATP (1–20 nM), and 10–20 mM Mg^2+ for periods of time generally within the range 10–120 min. Reactions were terminated with 0.2–2 volumes of either 20% acetic acid or 50–100 mM EDTA buffered to pH 7 (substrate consumption <20%). The buffer employed in enzyme assays was either 30 mM HEPES 7.4 containing 0.15 M NaCl and 5% DMSO, the buffer 50 mM MOPS 7.0 containing 0.15 M NaCl and 5% DMSO, or the buffer 100 mM HEPES pH 7.5 containing 0.1 mg/mL BSA and 5% DMSO. Inhibitors were diluted in 100% DMSO prior to addition into the assay. […]
# [4] = target: Lck (Homo sapiens, UniProt P06239); assay: Lck kinase assay (ELISA or isotope format); format: biochemical
# Chain of Lck (P06239 whole entry): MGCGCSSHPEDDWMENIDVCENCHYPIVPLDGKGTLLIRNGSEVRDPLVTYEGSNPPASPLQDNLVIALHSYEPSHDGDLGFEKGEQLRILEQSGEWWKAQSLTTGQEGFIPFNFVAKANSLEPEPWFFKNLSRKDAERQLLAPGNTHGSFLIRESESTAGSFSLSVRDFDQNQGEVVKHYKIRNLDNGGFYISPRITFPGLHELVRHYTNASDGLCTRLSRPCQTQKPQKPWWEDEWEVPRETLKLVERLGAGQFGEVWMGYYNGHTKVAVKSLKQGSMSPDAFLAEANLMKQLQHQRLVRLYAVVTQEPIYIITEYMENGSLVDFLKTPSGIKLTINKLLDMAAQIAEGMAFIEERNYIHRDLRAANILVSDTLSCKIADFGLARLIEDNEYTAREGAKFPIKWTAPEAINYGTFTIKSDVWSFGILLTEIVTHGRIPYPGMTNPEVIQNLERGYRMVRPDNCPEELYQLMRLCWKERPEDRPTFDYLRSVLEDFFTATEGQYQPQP
IC50 [1] [nM],"IC50 ([2]; Homo sapiens, MDA-MB-468, 72 h) [nM]",Structure (SMILES),IC50 [3] [nM],IC50 [4] [nM],IC50 ([2]; 72 h) [nM]
1 to 10,1100 to 5000,COC(=O)c1ccc2c(c1)/C(=C/Nc1ccc(S(N)(=O)=O)cc1)C(=O)N2 [Example 27],,,
,,NS(=O)(=O)c1ccc(NN=C2C(=O)Nc3ccc(-c4cnco4)cc32)cc1 [Example 36],1 to 10,> 100,
,,"O=C1Nc2ccc3ncsc3c2C1=CNc1ccc(S(=O)(=O)NCc2ccncc2)cc1 [Example 104, 4-[(7-Oxo-6,7-dihydro-1-thia-3,6-diaza-as-indacen-8-ylidenemethyl)amino]-N-pyridinyl-4-yl-methyl benzenesulfonamide]",11 to 50,,1100 to 5000
